Reference: US20050163852A1, “Process for loading and thermodynamically activating drungs on polymers by means of supercritical fluids” (priority 2002, published 2005)

Experiment: Activation level by Differential Scanning Calorimetry (fraction of crystalline form)
Type: physicochemical
Settings: DSC, ΔHmelting/ΔH0 normalized to drug assayed in the polymer
Protocol: The presence of amorphous, nanocrystalline or crystal phase can be detected by means of Differential Scanning Calorimetry (DSC). Compared to the sharp melting peak of the drug crystal, the nanocrystals present a broader peak with a markedly lower maximum of temperature (I. Colombo et al. 4th Int. Conf. Pharm. Technol., 1986; F. Carli et al. Acta Pharm. Jugosl. 38, 361, 1988).
In the examples, the activation level is expressed as the fraction of crystalline form. It is determined by comparing the enthalpy relative to the melting of the crystals in the polymer (ΔHmelting) to that of pure drug (ΔH0). The ΔHmelting/ΔH0 ratio, normalized in accordance with the drug assayed in the polymer, is then considered equal to the fraction of crystalline form. The higher the amount of crystals (higher crystallinity), the lower the thermodynamic activation level of the drug.

Structure (SMILES) | Crystallinity (ibuprofen, supercritical CO2) | Crystallinity (ibuprofen, supercritical ethylene) | Crystallinity (nimesulide, supercritical CO2)
CC(C)Cc1ccc(C(C)C(=O)O)cc1 (stereo not drawn) [Ibuprofen, ibuprofen] | 100% | 100% | –
CS(=O)(=O)Nc1ccc([N+](=O)[O-])cc1Oc1ccccc1 [Nimesulide, nimesulide] | – | – | 100%
